From PubChem BioAssay (NCI)
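96-well plates; 48 h exposure; 5 concentrations. Endpoints by linear interpolation between flanking doses. Not reached: highest tested concentration assigned. GI50 is the concentration that inhibits growth by half. TGI: total growth inhibition.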

How the values were obtained:
Assay in all cases: growth of human tumour cells (NCI), 48 h
[1] = system: 786-0 renal
[2] = system: A498 renal
[3] = system: A549 NSCLC
[4] = system: ACHN renal
[5] = system: CAKI-1 renal
[6] = system: CCRF-CEM leukemia
[7] = system: COLO 205 colon
[8] = system: DU-145 prostate
[9] = system: EKVX NSCLC
[10] = system: HCC-2998 colon
[11] = system: HCT-116 colon
[12] = system: HCT-15 colon
[13] = system: HL-60(TB) leukemia
[14] = system: HOP-62 NSCLC
[15] = system: HS 578T breast
[16] = system: HT29 colon
[17] = system: K-562 leukemia
[18] = system: KM12 colon
[19] = system: LOX IMVI melanoma
[20] = system: M14 melanoma
[21] = system: MALME-3M melanoma
[22] = system: MCF7 breast
[23] = system: MDA-MB-231 breast
[24] = system: MDA-MB-435
[25] = system: MOLT-4 leukemia
[26] = system: NCI-H226 lung
[27] = system: NCI-H23 lung
[28] = system: NCI-H460 lung
[29] = system: NCI-H522 lung
[30] = system: NCI/ADR-RES ovarian
[31] = system: OVCAR-3 ovarian
[32] = system: OVCAR-4 ovarian
[33] = system: OVCAR-5 ovarian
[34] = system: OVCAR-8 ovarian
[35] = system: PC-3 prostate
[36] = system: RPMI-8226 leukemia
[37] = system: RXF 393 renal
[38] = system: SF-268 CNS
[39] = system: SF-295 CNS
[40] = system: SF-539 CNS
[41] = system: SK-MEL-2 melanoma
[42] = system: SK-MEL-28 melanoma
[43] = system: SK-MEL-5 melanoma
[44] = system: SK-OV-3 ovarian
[45] = system: SN12C renal
[46] = system: SNB-19 CNS
[47] = system: SNB-75 CNS
[48] = system: SW-620 colon
[49] = system: T-47D breast
[50] = system: TK-10 renal
[51] = system: U251 CNS
[52] = system: UACC-257 melanoma
[53] = system: UACC-62 melanoma
[54] = system: UO-31 renal
[55] = system: HOP-92 NSCLC
[56] = system: IGROV1 ovarian
[57] = system: BT-549 breast
[58] = system: SR leukemia

C=C(CN1CCc2ccccc2C1)c1ccc(CCCC(=O)Nc2ccccc2N)cc1
GI50 [1]: 12.1 µM
TGI [1]: 28.2 µM
GI50 [2]: 12.6 µM
TGI [2]: 26.1 µM
GI50 [3]: 16.4 µM
TGI [3]: 58.8 µM
GI50 [4]: 25.9 µM
TGI [4]: > 100 µM
GI50 [5]: 17.9 µM
TGI [5]: 82.5 µM
GI50 [6]: 3.06 µM
TGI [6]: > 100 µM
GI50 [7]: 17 µM
TGI [7]: 33.1 µM
GI50 [8]: 11.3 µM
TGI [8]: 30.4 µM
GI50 [9]: 12 µM
TGI [9]: 47.1 µM
GI50 [10]: 21.1 µM
TGI [10]: 43.2 µM
GI50 [11]: 12.8 µM
TGI [11]: 33.3 µM
GI50 [12]: 28 µM
TGI [12]: > 100 µM
GI50 [13]: 7.13 µM
TGI [13]: 31.3 µM
GI50 [14]: 22.7 µM
TGI [14]: 75.2 µM
GI50 [15]: 14 µM
TGI [15]: 43.4 µM
GI50 [16]: 13.1 µM
TGI [16]: 30.4 µM
GI50 [17]: 0.505 µM
TGI [17]: 25.3 µM
GI50 [18]: 11.1 µM
TGI [18]: 27.2 µM
GI50 [19]: 9.15 µM
TGI [19]: 21.7 µM
GI50 [20]: 15.8 µM
TGI [20]: 33 µM
GI50 [21]: 11.7 µM
TGI [21]: 25.7 µM
GI50 [22]: 8.45 µM
TGI [22]: > 100 µM
GI50 [23]: 10.2 µM
TGI [23]: 26.3 µM
GI50 [24]: 11.9 µM
TGI [24]: 26.4 µM
GI50 [25]: 1.28 µM
TGI [25]: 15.3 µM
GI50 [26]: 28.8 µM
TGI [26]: 94.6 µM
GI50 [27]: 20.1 µM
TGI [27]: 48.6 µM
GI50 [28]: > 100 µM
TGI [28]: > 100 µM
GI50 [29]: 1.92 µM
TGI [29]: 7.15 µM
GI50 [30]: 17.4 µM
TGI [30]: 51.6 µM
GI50 [31]: 9.81 µM
TGI [31]: 22.2 µM
GI50 [32]: 14.5 µM
TGI [32]: 49.8 µM
GI50 [33]: 26.5 µM
TGI [33]: 80.2 µM
GI50 [34]: 18.4 µM
TGI [34]: 62.8 µM
GI50 [35]: 10.5 µM
TGI [35]: 30.3 µM
GI50 [36]: 5.37 µM
TGI [36]: 22.2 µM
GI50 [37]: 17.1 µM
TGI [37]: 35.7 µM
GI50 [38]: > 100 µM
TGI [38]: > 100 µM
GI50 [39]: 14.6 µM
TGI [39]: 39.9 µM
GI50 [40]: 11.4 µM
TGI [40]: 24 µM
GI50 [41]: 14.5 µM
TGI [41]: 31.8 µM
GI50 [42]: 15.7 µM
TGI [42]: 29.7 µM
GI50 [43]: 5.01 µM
TGI [43]: 17.3 µM
GI50 [44]: 19.4 µM
TGI [44]: 52.9 µM
GI50 [45]: 13 µM
TGI [45]: 28.4 µM
GI50 [46]: 23.2 µM
TGI [46]: > 100 µM
GI50 [47]: 3.33 µM
TGI [47]: 27.7 µM
GI50 [48]: 15.6 µM
TGI [48]: 32.1 µM
GI50 [49]: 11.2 µM
TGI [49]: 59.3 µM
GI50 [50]: 41.3 µM
TGI [50]: > 100 µM
GI50 [51]: 18.4 µM
TGI [51]: 44.5 µM
GI50 [52]: 17.4 µM
TGI [52]: 42 µM
GI50 [53]: 15.1 µM
TGI [53]: 30.8 µM
GI50 [54]: 2.7 µM
TGI [54]: 17.7 µM

Cc1c(C(=O)O)sc2nc[nH]c(=O)c12
TGI [1]: > 100 µM
TGI [3]: > 100 µM
TGI [4]: > 100 µM
TGI [5]: > 100 µM
TGI [7]: > 100 µM
TGI [8]: > 100 µM
TGI [9]: > 100 µM
TGI [10]: > 100 µM
TGI [11]: > 100 µM
TGI [12]: > 100 µM
TGI [13]: > 100 µM
TGI [14]: > 100 µM
TGI [55]: > 100 µM
TGI [15]: 79.5 µM
TGI [16]: > 100 µM
TGI [56]: > 100 µM
TGI [17]: > 100 µM
TGI [18]: > 100 µM
TGI [19]: > 100 µM
TGI [20]: > 100 µM
TGI [21]: > 100 µM
TGI [22]: > 100 µM
TGI [23]: > 100 µM
TGI [24]: > 100 µM
TGI [25]: > 100 µM
TGI [26]: > 100 µM
TGI [27]: > 100 µM
TGI [28]: > 100 µM
TGI [29]: > 100 µM
TGI [30]: > 100 µM
TGI [31]: > 100 µM
TGI [32]: > 100 µM
TGI [33]: > 100 µM
TGI [34]: > 100 µM
TGI [35]: > 100 µM
TGI [36]: > 100 µM
TGI [37]: > 100 µM
TGI [38]: > 100 µM
TGI [39]: > 100 µM
TGI [40]: > 100 µM
TGI [41]: > 100 µM
TGI [42]: > 100 µM
TGI [43]: > 100 µM
TGI [44]: > 100 µM
TGI [45]: > 100 µM
TGI [46]: > 100 µM
TGI [47]: > 100 µM
TGI [48]: > 100 µM
TGI [49]: > 100 µM
TGI [50]: > 100 µM
TGI [51]: > 100 µM
TGI [52]: > 100 µM
TGI [53]: > 100 µM
TGI [54]: > 100 µM

C/C(=N\Nc1nc2cc(F)ccc2s1)c1ccccn1
TGI [1]: > 39 µM
TGI [2]: > 100 µM
TGI [4]: 1.35 µM
TGI [57]: 5.84 µM
TGI [5]: 5.67 µM
TGI [6]: > 100 µM
TGI [8]: > 100 µM
TGI [11]: 13.2 µM
TGI [12]: 2.12 µM
TGI [14]: > 21.9 µM
TGI [55]: 11.5 µM
TGI [16]: 3.33 µM
TGI [17]: > 43.8 µM
TGI [18]: > 23.4 µM
TGI [20]: 4.07 µM
TGI [21]: 23 µM
TGI [22]: > 100 µM
TGI [23]: > 45.1 µM
TGI [24]: > 100 µM
TGI [25]: > 100 µM
TGI [27]: 2.23 µM
TGI [28]: > 100 µM
TGI [29]: 2.62 µM
TGI [30]: 0.12 µM
TGI [31]: 5.45 µM
TGI [32]: 3.32 µM
TGI [33]: 50.1 µM
TGI [34]: 1.79 µM
TGI [35]: 10.4 µM
TGI [36]: > 100 µM
TGI [37]: 6.65 µM
TGI [38]: 1.65 µM
TGI [39]: 4.67 µM
TGI [40]: > 23.4 µM
TGI [41]: 7.33 µM
TGI [42]: > 100 µM
TGI [43]: 5.49 µM
TGI [44]: 5.37 µM
TGI [45]: > 43.8 µM
TGI [46]: > 41.7 µM
TGI [47]: 4.68 µM
TGI [58]: > 100 µM
TGI [48]: 5.37 µM
TGI [49]: > 100 µM
TGI [51]: > 33.3 µM
TGI [52]: > 24.4 µM
TGI [53]: 1.46 µM
TGI [54]: 0.314 µM
